Source: US20210388028A1, “GLYCOPEPTIDE DERIVATIVE COMPOUNDS AND USES THEREOF” (INSMED INCORPORATED, priority 2018, published 2021)

Key:
[1] = test system: gram positive pathogens including S. Aureus methicillin-susceptible and resistant isolates; assay: antibacterial activity against gram positive pathogens; type: cell-based
[2] = set-up: species or system Sprague Dawley rats; conditions: rat, in vivo, inhaled or intranasal, 10 mg/kg
Description: 120 h single dose in vivo PK experiments of nebulized inhaled compounds were performed in healthy male Sprague Dawley rats at target body-weight doses of 10 mg/kg (RV40) or 1.5 mg/kg (TLV, RV104, RV106), using a 12-port nose-only chamber (CH Technologies, Westwood, N.J., USA) equipped with an Aerogen Aeroneb Pro mesh nebulizer. The aerosol was provided to chamber at a flow rate of 6 L/min. Lungs were collected, and drug concentrations measured by HPLC-MS/MS.
Chemical modification of the compound to include an additional moiety at R=x was accomplished to improve reduce the compound's predictive hydrophobicity.

For `CCCCCCCCCCNCCN[C@@]1(C)C[C@H](O[C@H]2[C@H](Oc3c4cc5cc3Oc3ccc(cc3Cl)[C@@H](O)[C@@H](NC(=O)[C@@H](CC(C)C)NC)C(=O)N[C@@H](CC(N)=O)C(=O)N[C@H]5C(=O)N[C@H]3C(=O)N[C@H](C(=O)N[C@H](C(=O)O)c5cc(O)cc(O)c5-c5cc3ccc5O)[C@H](O)c3ccc(c(Cl)c3)O4)O[C@H](CO)[C@@H](O)[C@@H]2O)O[C@@H](C)[C@H]1O` [RV40], the antibacterial activity [1] was “potent antibacterial activity” and the “half-life in lung tissue (t1/2)” value [2] was 12.5 days.
